Columns and labels:
Type in all cases: in vivo
[1] = system: creeping red Fescue (FESRU, Festuca rubra); assay: Field trial: percent growth inhibition of creeping red Fescue
Experimental: (§1) Trials were conducted under field conditions in Canada. Trial sites were located in perennial forage grass areas. Forage grasses tested included: Bromegrass, Timothy Fescue and Wheatgrass species, including: meadow Bromegrass (BROCO, Bromus commutatus), smooth Brome grass (BROIN, Bromus inermus), Timothy (PHLPR, Phleum pretense), creeping red Fescue (FESRU, Festuca rubra), Tall Fescue (FESAR, Festuca arundinacea), and Western Wheatgrass (AGRSM, Agropyron smithii). The grasses were grown using normal cultural practices for fertilization, seeding, and maintenance to ensure good growth of the grasses. The trials were conducted using normal research methodology. Trial plots were between 2 to 5 meters (m) wide by 5 to 20 m long. All treatments were applied using a randomized complete block trial design with 3 or 4 replications per treatment. The trial sites had populations of homogeneous or heterogeneous perennial forage grass species present. Treatments consisted of pyroxsulam formulations (Simplicity® (trademark of Dow AgroSciences LLC for pyroxsulam+cloquintocet) or water-dispersible formulations of pyroxsulam) alone, or in tank mixes with Milestone® herbicide (trademark of Dow AgroSciences LLC for aminopyralid) or ClearView® herbicide (trademark of Dow AgroSciences LLC for aminopyralid+metsulfuron-methyl) with or without 2,4-D ester applied in water. Adjuvants were applied at 0.2% to 0.5% V/V. The application volumes were between 50 to 200 liters per hectare (L/ha). All application were made using precision gas hand sprayers or calibrated ATV sprayer using a 2 or 5 m boom using flat fan (80° or 110°) nozzles to broadcast the treatments post-emergent on the vegetation or soil.
(§2) The treated plots and control plots were rated blind at various intervals after application. Ratings were based on Percent (%) Visual growth suppression (reduction) from untreated grass, where […] or growth inhibition compared to the untreated grass growth. Quantitative measurements were also taken at various intervals after application, and measured in cm or inches height of leaf blade top height from the ground.

[2] = system: All grass species combined (CRFescue, Brome Grass, Quackgrass); assay: Field trial: biomass reduction of pyroxsulam-treated vs untreated grass; conditions: 30 DAA
Experimental: Trials were conducted under field conditions in Canada. Trial sites were located in perennial forage grass areas. Forage grasses tested included: Bromegrass, Timothy Fescue and Wheatgrass species, including: meadow Bromegrass (BROCO, Bromus commutatus), smooth Brome grass (BROIN, Bromus inermus), Timothy (PHLPR, Phleum pretense), creeping red Fescue (FESRU, Festuca rubra), Tall Fescue (FESAR, Festuca arundinacea), and Western Wheatgrass (AGRSM, Agropyron smithii). The grasses were grown using normal cultural practices for fertilization, seeding, and maintenance to ensure good growth of the grasses. The trials were conducted using normal research methodology. Trial plots were between 2 to 5 meters (m) wide by 5 to 20 m long. All treatments were applied using a randomized complete block trial design with 3 or 4 replications per treatment. The trial sites had populations of homogeneous or heterogeneous perennial forage grass species present. […]
The treated plots and control plots were rated blind at various intervals after application. […] Quantitative measurements were also taken at various intervals after application, and measured in cm or inches height of leaf blade top height from the ground.

[3] = system: meadow Bromegrass (BROCO, Bromus commutatus); assay: Field trial: height of meadow Bromegrass after pyroxsulam application; conditions: for Height (cm): mean of 3 replicates
Experimental: as §1, §2

[4] = 15 g ai/ha, 0 days after application
[5] = 15 g ai/ha, 7 days after application
[6] = 15 g ai/ha, 14 days after application
[7] = 15 g ai/ha, 21 days after application
[8] = 15 g ai/ha, 30 days after application
[9] = 15 g ai/ha, 37 days after application
[10] = 15 g ai/ha, 42 days after application
[11] = 15 g ai/ha, 50 days after application
[12] = 15 g ai/ha, 56 days after application
[13] = 15 g ai/ha, 65 days after application
[14] = 15 g ai/ha, 72 days after application
[15] = 30 g ai/ha, 0 days after application
[16] = 30 g ai/ha, 7 days after application
[17] = 30 g ai/ha, 14 days after application
[18] = 30 g ai/ha, 21 days after application
[19] = 30 g ai/ha, 30 days after application
[20] = 30 g ai/ha, 37 days after application
[21] = 30 g ai/ha, 42 days after application
[22] = 30 g ai/ha, 50 days after application
[23] = 30 g ai/ha, 56 days after application
[24] = 30 g ai/ha, 65 days after application
[25] = 30 g ai/ha, 72 days after application

Compound: COc1cc(OC)n2nc(NS(=O)(=O)c3c(C(F)(F)F)ccnc3OC)nc2n1 [Pyroxsulam, N-(5,7-dimethoxy[1,2,4]-triazolo[1,5-α]pyrimidin-2-yl)-2-methoxy-4-(trifluoromethyl)-3-pyridinesulfonamide]
- % Growth Inhibition ([1]; 15 g ai/ha, week 1): 0%
- % Growth Inhibition ([1]; 15 g ai/ha, week 2): 7%
- % Growth Inhibition ([1]; 15 g ai/ha, week 3): 35%
- % Growth Inhibition ([1]; 15 g ai/ha, week 4): 30%
- % Growth Inhibition ([1]; 15 g ai/ha, week 5): 23%
- % Growth Inhibition ([1]; 15 g ai/ha, week 6): 21%
- % Growth Inhibition ([1]; 15 g ai/ha, week 7): 15%
- % Growth Inhibition ([1]; 15 g ai/ha, week 8): 4%
- % Growth Inhibition ([1]; 15 g ai/ha, week 9): 8%
- % Growth Inhibition ([1]; 15 g ai/ha, week 10): 12%
- % Growth Inhibition ([1]; 30 g ai/ha, week 1): 0%
- % Growth Inhibition ([1]; 30 g ai/ha, week 2): 14%
- % Growth Inhibition ([1]; 30 g ai/ha, week 3): 35%
- % Growth Inhibition ([1]; 30 g ai/ha, week 4): 32%
- % Growth Inhibition ([1]; 30 g ai/ha, week 5): 32%
- % Growth Inhibition ([1]; 30 g ai/ha, week 6): 21%
- % Growth Inhibition ([1]; 30 g ai/ha, week 7): 19%
- % Growth Inhibition ([1]; 30 g ai/ha, week 8): 12%
- % Growth Inhibition ([1]; 30 g ai/ha, week 9): 4%
- % Growth Inhibition ([1]; 30 g ai/ha, week 10): 12%
- Biomass reduction (%) ([2]; 15 g/ha): 40%
- Biomass reduction (%) ([2]; 30 g/ha): 38%
- Height (% of Untreated) [3, 4]: 100.0%
- Height (cm) [3, 4]: 20 cm
- Height (% of Untreated) [3, 5]: 57.1%
- Height (cm) [3, 5]: 20 cm
- Height (% of Untreated) [3, 6]: 50.0%
- Height (cm) [3, 6]: 25 cm
- Height (% of Untreated) [3, 7]: 47.6%
- Height (cm) [3, 7]: 30 cm
- Height (% of Untreated) [3, 8]: 45.0%
- Height (cm) [3, 8]: 27 cm
- Height (% of Untreated) [3, 9]: 43.1%
- Height (cm) [3, 9]: 28 cm
- Height (% of Untreated) [3, 10]: 45.2%
- Height (cm) [3, 10]: 33 cm
- Height (% of Untreated) [3, 11]: 53.8%
- Height (cm) [3, 11]: 42 cm
- Height (% of Untreated) [3, 12]: 52.4%
- Height (cm) [3, 12]: 43 cm
- Height (% of Untreated) [3, 13]: 58.5%
- Height (cm) [3, 13]: 48 cm
- Height (% of Untreated) [3, 14]: 76.8%
- Height (cm) [3, 14]: 63 cm
- Height (% of Untreated) [3, 15]: 100.0%
- Height (cm) [3, 15]: 20 cm
- Height (% of Untreated) [3, 16]: 57.1%
- Height (cm) [3, 16]: 20 cm
- Height (% of Untreated) [3, 17]: 50.0%
- Height (cm) [3, 17]: 25 cm
- Height (% of Untreated) [3, 18]: 44.4%
- Height (cm) [3, 18]: 28 cm
- Height (% of Untreated) [3, 19]: 41.7%
- Height (cm) [3, 19]: 25 cm
- Height (% of Untreated) [3, 20]: 38.5%
- Height (cm) [3, 20]: 25 cm
- Height (% of Untreated) [3, 21]: 45.2%
- Height (cm) [3, 21]: 33 cm
- Height (% of Untreated) [3, 22]: 51.3%
- Height (cm) [3, 22]: 40 cm
- Height (% of Untreated) [3, 23]: 51.2%
- Height (cm) [3, 23]: 42 cm
- Height (% of Untreated) [3, 24]: 52.4%
- Height (cm) [3, 24]: 43 cm
- Height (% of Untreated) [3, 25]: 57.3%
- Height (cm) [3, 25]: 47 cm
